Laboratory results reported in patent publication US9717796B1, “Heat sterilizeable, premixed, ready to use dexmedetomidine solution packaged in a flexible plastic container” (SLYPHARMA, LLC, priority 2016, dated 2017).
Read-outs that look alike come from different tables or passages of the source.

Experiments:
[1] = Procedure: A composition was prepared containing 4.0 μg Dexmedetomidine and 50 mg dextrose to adjust tonicity with sufficient water to bring the total volume to 1 mL.
Remark: listed apart in the source
[2] = cited from earlier work
[3] = DEHP used as plasticizer in PVC bags; cited from earlier work

- time the solution will be stable at room temperature ([1]; Example 1 solution (dextrose) in Nexcel bag, extrapolated from the accelerated test): about 24 months
- adsorption or absorption by the ethylene-vinyl acetate copolymer inner-most bag layer ([1]; Example 1 solution, Nexcel bag, storage tests): not adsorbed or absorbed
- dexmedetomidine retained after autoclaving in moist steam (5.5 mg/mL sodium chloride and 28 gram/mL sodium acetate and 320 mg/mL glacial acetic acid as buffer): 90.1%
- retention of the dexmedetomidine after autoclaving in moist steam (buffer (28 g/mL sodium acetate and 320 mg/mL glacial acetic acid) with dextrose as tonicity adjusting agent, Nexcel bag): 99.4%
- retention of the dexmedetomidine after autoclaving in moist steam (buffer (28 g/mL sodium acetate and 320 mg/mL glacial acetic acid) with sucrose as tonicity adjusting agent, Nexcel bag): 99.0%
- dexmedetomidine retained after autoclaving in moist steam (solution comprising 9 mg/mL sodium chloride, Nexcel bag): 93%
SMILES: Cc1cccc([C@H](C)c2cnc[nH]2)c1C [dexmedetomidine, (S)-4-[1-(2,3-dimethylphenyl)ethyl]-3H-imidazole]
- potency loss ([2]; CR3 elastomer copolyester ether bags and PVC bags, autoclaving): 20%
- drug recovered in MeOH rinse of emptied bags ([2]; CR3 elastomer copolyester ether bags): Nearly all
- drug recovered in MeOH rinse of emptied bags ([2]; PVC bags): 1%
- total percent of impurities ([2]; autoclaved premixed composition in PVC and CR3 bags): less than 20%
- drug loss ([2]; formulation with a buffer system, plastic bags): ~10%
- dexmedetomidine lost through adsorption ([2]; premixed solution in plastic materials): up to 20%
- solubility in DEHP [3]: soluble
